We go through two compounds from patent publication US11419843B2, “Small molecule BCL-2 functional converters as cancer therapeutics” (Oregon State University, priority 2016, dated 2022).

pKd: −log10 of the molar value. Where two headings read alike, the source gives them in different places.

The test system of data set [1] is H460 parental and resistant cells. As to the kind of experiment: Annexin-V apoptosis assay in H460 parental and resistant cells. To be noted: BFC1108 20 μM, 48 hours. The data set is classed as cell-based, human. As to the method:
FIG. 25E is the results of Annexin-V apoptosis assay in H460 cells treated for 48 hours with vehicle or paclitaxel 10 nM, quantification right panel.
Cells were seeded into 6 well tissue culture plates to give approximately 50% confluence and allowed to attach overnight. The cells were then treated for a period of time indicated in figure legend with the appropriate compound at various concentrations (see figure legends). An Annexin V-conjugate PerCP-eFluor 710 apoptosis detection kit was used as described by the manufacturer's protocol (eBioscience 88-8008). Harvesting of cells included collection of floating and attached cells following trypsinization. Data were acquired using an CytoFLEX S flow cytometer (Beckman Coulter, Brea, Calif.) and 10,000 events on the PC5.5 channel were analyzed using CytExpert software (Beckman Coulter). For Nur77 GFP tagged annexin V analysis, GFP positive population were selected and then Annexin V+population was determined. For each sample, 10,000 GFP+ events were collected. Annexin V positive cell population was considered to be the apoptotic population, and the percent of annexin V positive cell population was used to determine the extent of apoptosis.

Data set [2] relates to MEF Bcl-2−/− and WT MEF cells. As to the kind of experiment: Colony forming ability of MEFs. The data set is classed as cell-based, mouse. The following applies: 10 μM, 10% FBS, 48 h.
The conditions of data set [3]: humans; cited from earlier work.
The subject of data set [4] is MDA-MB-231 cells with or without Bcl-2 expression vector. As to the kind of experiment: Transwell matrigel invasion assay. In kind it is cell-based, human. The following applies: 10 μM, 16 h. As to the method: FIG. 10F is MDA-MB231 cells with or without Bcl-2 expression vector were treated with 10 μM MTX or vehicle in a matrigel invasion chamber for 16 h and the membrane was then fixed, stained and number of cells invaded counted.
Invasion assay was performed using BD transwell invasion assay kit. MDA-MB-231 cells were treated for 16 h at 10 μM concentration and membrane was stained with prolong anti-fade DAPI stain and number of cells invaded were counted under a fluorescent microscope.

The target of data set [5] is T1, Nur77 interaction with Bcl-2 (Homo sapiens, UniProt P10415).
T1 construct: expressed in transfected cells; host or cells: HEK293T
T1 sequence (P10415 whole entry): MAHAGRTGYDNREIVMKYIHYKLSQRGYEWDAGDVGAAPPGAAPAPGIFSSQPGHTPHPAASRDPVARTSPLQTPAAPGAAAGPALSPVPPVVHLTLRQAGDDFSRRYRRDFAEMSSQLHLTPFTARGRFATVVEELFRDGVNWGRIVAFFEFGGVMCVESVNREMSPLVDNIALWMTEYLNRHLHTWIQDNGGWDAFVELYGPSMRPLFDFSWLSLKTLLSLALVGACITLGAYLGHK
Description: Co-immunoprecipitation, competition with Nur77 for Bcl-2. In kind it is binding. To be noted: 10 μM MTX, 16 h, HEK293T cells. On the procedure: Methotrexate reduced the interaction of Nur-77 with BCl-2 domain upon co-incubation indicating methotrexate interacts with the same region of loop domain as does Nur-77.
For CoIP experiments, HEK293T cells were plated in a 6 well plate and transfected with indicated expression plasmids by lipofectamine. The total amount of DNA was maintained at 2.5 μg. After 12 h of transfection, cells were treated with DMSO or 10 μM MTX for 16 h. The cells were then lysed on ice using RIPA buffer with freshly added protease inhibitor cocktail (Complete, mini, EDTA-free protease inhibitor cocktail, Roche, Inc.). The lysis buffer contained either DMSO or 10 μM MTX. Cell lysates were incubated on ice for 30 min and then spun at 14,000 rpm for 30 min at 4° C. Cleared lysates were incubated with Bcl-2 antibody (sc-509, Santacruz) and incubated at 4° C. for 2-4 h end-over-end mixing. After incubation a volume of sepharose beads (sc-2003, Santacruz) were added to each sample and left end-over-end mixing overnight at 4° C. The beads were then washed four times with RIPA buffer containing either DMSO or 10 μM and then solubilized in laemmli buffer. Proteins were analyzed on 10-12% SDS-PAGE and immunoblotted with mouse polyclonal anti-Bcl-2 (sc-509, Santacruz), mouse polyclonal anti-GFP (33-2600, Thermofisher).

The subject of another data set is WT and Bcl-2−/− MEFs. Description: Viability of WT and Bcl-2-/- MEFs. In kind it is cell-based, mouse. The following applies: indicated concentrations, 10% FBS. As to the method:
FIG. 9E depicts effect of methotrexate in certain cancer cell types. Left Panel: Bcl-2 levels in WT and Bcl-2−/− MEFs. Right panel: MEF cells were exposed to indicated concentrations of Methotrexate in medium containing 10% FBS and viability was determined by cell titer glo assay.
Cell viability was determined using CellTiter Glo Luminescent Cell Viability Assay (Promega, Madison, Wis.) as per manufacturer instructions. DAPI stain was used to assess apoptosis. Colony forming assays were performed as described previously.

For data set [6] the following is noted: mice; cited from earlier work.
Data set [7] deals with paclitaxel resistant H460 cells. Description: Zebrafish xenograft model. To be noted: 1 to 4 days post injection. The data set is classed as in vivo, Zebrafish (Danio rerio). On the procedure:
Total area signifies total h460 cell area in zebrafish.
Zebrafish (Danio rerio) were housed at the Sinnhuber Aquatic Research Laboratory at Oregon State University in accordance with Institutional Animal Care and Use Committee protocols. Adult 5D Tropical zebrafish were maintained under standard laboratory conditions of 28±1° C. on a 14 hr light/10 hr dark photoperiod in fish water consisting of reverse osmosis water supplemented with a commercially available salt solution (0.6%, Instant Ocean, UnitedPet Group, Inc., Blacksburg, Va., USA). Collected eggs were staged according to Kimmel et al. At 24 hours post fertilization (hpf), zebrafish embryos were maintained in E3 media with phenylthiourea (0.003%, Sigma, USA).
For transplantations, H460 cells were labeled with a CM-DiI dye (Thermo Fisher Sci.) according to the manufacturer's protocol and suspended to a concentration of 2×10^7 cells/mL. […]
For imaging, zebrafish xenografts were anesthetized by emersion in 0.2 mg/mL Tricaine E3 media and imbedded in 0.8% (w/v) low melting point agarose on a glass bottom 96-well plate. […] H460 cancer growth was analyzed using Fiji (Fiji is Just Imagej) software. […] Cancer area was calculated by creating a binary mask from thresholds with the Otsu algorithm and calculating the total area of the resulting segmented objects. […]

For the next data set, the target named is Bcl-2 loop domain (Homo sapiens, UniProt P10415). Description: NMR titration of 15N-13C labeled Bcl-2 loop domain (HSQC chemical shift perturbation). The following applies: for pKd: 0.2 mM Bcl-2 loop titrated with 0.2-5.4 mM MTX.
Bcl-2 loop domain, sequence (P10415 29-90 limits assumed): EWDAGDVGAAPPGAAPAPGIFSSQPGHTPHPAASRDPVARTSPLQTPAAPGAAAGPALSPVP

In the case of `CCOc1ccccc1NC(=O)c1cc(Cl)ccc1NC(=O)c1ccc(OC)cc1` [BFC1108, 5-chloro-N-(2-ethoxyphenyl)-2-[(4-methoxybenzoyl)amino]-benzamide], in data set [1], the “Induction of apoptosis (Annexin V), H460 resistant vs parental” value is reported as “induced apoptosis in the resistant line preferentially”. In [2], the “Colony forming ability of MEF Bcl-2−/− cells” value is listed as “absent” and the “Colony forming ability of WT MEFs” value is listed as “fewer colonies”.
For `CN(Cc1cnc2nc(N)nc(N)c2n1)c1ccc(C(=O)N[C@@H](CCC(=O)O)C(=O)O)cc1` [MTX, (2S)-2-[[4-[(2,4 diaminopteridin-6-yl)methylmethylamino]benzoyl]amino] pentanedioc acid], the half-life in data set [3] is 7 to 10 h; in data set [6], 0.5 h. For the same compound, the “Invasive potential of Bcl-2 over-expressing cells vs vector controls” value in data set [4] is “inhibited the invasive potential of Bcl-2 over-expressing cells”. Also, the “Competition with Nur77 for interaction with Bcl-2” value in data set [5] was “competition between MTX and Nur77 in interacting with the Bcl-2 protein could be seen”. Moreover, the “Bcl-2 dependent induction of apoptosis in MEFs with or without Bcl-2” value in the data set on WT and Bcl-2−/− MEFs is listed as “Bcl-2 dependent induction of apoptosis by MTX was also seen in mouse embryonic fibroblast cells with or without Bcl-2”. In addition, the “Growth of paclitaxel resistant H460 cells in zebrafish” value in data set [7] is reported as “reduction in paclitaxel resistant H460 growth in vivo”. Besides, at Bcl-2 loop domain (15N-1H HSQC), the “Chemical shift perturbations of Bcl-2 loop domain upon titration” value is on record as “residues 55-60”. The “Hill coefficient, His55” value at Bcl-2 loop domain (Hill model fit) was 1.2. Besides, the “Hill coefficient, His58” value at Bcl-2 loop domain (Hill model fit) was found to be 1.0. In addition, the pKd is 2.29 at Bcl-2 loop domain (Kd from chemical shift perturbation of His55, Hill model fit) and 1.94 on Bcl-2 loop domain (Kd from chemical shift perturbation of His58, Hill model fit).

What is called half-life is the time needed for the level to fall by half in the phase considered. Broadly, the pKd is −log10 of the Kd, conventionally taken in molar units.
